13 molecules from US20160272617A1, “SUBSTITUTED PHENYLALANINE DERIVATIVES” (BAYER PHARMA AKTIENGESELLSCHAFT, priority 2013, published 2016) can be followed below.

Counter-ions that a name gives are not always drawn.

In one assay the target is T1, human factor XIa (Homo sapiens, UniProt P03951).
T1 construct: purchased Kordia
In words: Measurement of FXIa inhibition (fluorogenic peptide substrate Boc-Glu(OBzl)-Ala-Arg-AMC). In kind it is biochemical. The note with it: factor XIa from Kordia, 15 min preincubation, 30 min at 22° C., fluorescence. In a few lines:
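Released AMC fluorescence (360/460 nm) read after 30 min at 22 °C. The reaction was started with Boc-Glu(OBzl)-Ala-Arg-AMC (10 μM stock) after a 15 min preincubation of the enzyme (0.45 nM stock) with compound (final 50 μM to 0.00013 μM).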

Another assay relates to human and animal plasma. In words: Determination of anticoagulatory activity: activated partial thromboplastin time (aPTT) in plasma. As to conditions: concentration of test substance which brings about a 1.5-fold extension of the aPTT; plasma species not given. In a few lines:
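Citrated plasma (1:9, 0.11 M citrate; 4000 g, 15 min) from human or animal blood incubated with test compound and cephalin/kaolin PTT reagent for 3 min at 37° C.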

T1 sequence (P03951 388-625 limits assumed): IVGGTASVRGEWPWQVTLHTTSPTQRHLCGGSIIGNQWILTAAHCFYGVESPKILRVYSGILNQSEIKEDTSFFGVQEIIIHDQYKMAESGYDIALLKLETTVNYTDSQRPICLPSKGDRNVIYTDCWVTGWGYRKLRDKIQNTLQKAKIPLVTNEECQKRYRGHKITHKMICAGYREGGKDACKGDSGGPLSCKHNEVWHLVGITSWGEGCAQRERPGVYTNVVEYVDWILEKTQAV
T1 sequence (P03951 19-387 partner limits assumed): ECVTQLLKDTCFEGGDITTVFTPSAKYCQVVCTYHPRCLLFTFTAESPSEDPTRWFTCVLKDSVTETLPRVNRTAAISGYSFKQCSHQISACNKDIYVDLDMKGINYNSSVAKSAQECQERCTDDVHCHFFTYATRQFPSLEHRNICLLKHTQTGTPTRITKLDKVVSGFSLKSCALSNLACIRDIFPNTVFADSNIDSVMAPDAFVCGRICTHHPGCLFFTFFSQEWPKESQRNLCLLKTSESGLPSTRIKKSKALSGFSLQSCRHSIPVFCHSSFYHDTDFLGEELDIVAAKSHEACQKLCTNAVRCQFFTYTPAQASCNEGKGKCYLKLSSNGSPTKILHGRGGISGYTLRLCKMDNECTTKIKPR

Usually IC50 stands for the concentration that inhibits the measured activity by half. Low values mean greater potency, high ones weaker potency. At human factor XIa, `NC[C@H]1CC[C@H](C(=O)N[C@@H](Cc2ccc(-c3cc(F)c(C(=O)NC4CCNCC4)c(F)c3)cc2)C(=O)Nc2ccc(-c3nn[nH]n3)cc2)CC1` [Example 118, hydrochloride] registered an IC50 of 2.9 nM. Also, the “aPTT” value with human and animal plasma worked out at 0.11 µmol/L.

In turn, `CCOc1cc(C(=O)NC2CCNCC2)ccc1-c1ccc(C[C@H](NC(=O)[C@H]2CC[C@H](CN)CC2)C(=O)Nc2ccc(-c3nn[nH]n3)cc2)cc1` [Example 119, 4′-[(2S)-2-({[trans-4-(Aminomethyl)cyclohexyl]carbonyl}amino)-3-oxo-3-{[4-(2H-tetrazol-5-yl)phenyl]amino}propyl]-2-ethoxy-N-(piperidin-4-yl)biphenyl-4-carboxamide hydrochloride] displayed an IC50 against human factor XIa of 2.1 nM. Besides, the “aPTT” value in the assay on human and animal plasma was 0.08 µmol/L.

`NC[C@H]1CC[C@H](C(=O)N[C@@H](Cc2ccc(-c3ccc(C(=O)NC4CCNCC4)c(C(F)(F)F)c3)cc2)C(=O)Nc2ccc(-c3nn[nH]n3)cc2)CC1` [Example 120, 4′-[(2S)-2-({[trans-4-(Aminomethyl)cyclohexyl]carbonyl}amino)-3-oxo-3-{[4-(2H-tetrazol-5-yl)phenyl]amino}propyl]-N-(piperidin-4-yl)-3-(trifluoromethyl)biphenyl-4-carboxamide hydrochloride] displayed an IC50 on human factor XIa of 6.7 nM. Also, the “aPTT” value in the assay with human and animal plasma stood at 0.14 µmol/L.

Take `COc1c(-c2ccc(C[C@H](NC(=O)[C@H]3CC[C@H](CN)CC3)C(=O)Nc3ccc(-c4nn[nH]n4)cc3)cc2)ccc(C(=O)NC2CCNCC2)c1F` [Example 121, 4′-[(2S)-2-({[trans-4-(Aminomethyl)cyclohexyl]carbonyl}amino)-3-oxo-3-{[4-(2H-tetrazol-5-yl)phenyl]amino}propyl]-3-fluoro-2-methoxy-N-(piperidin-4-yl)biphenyl-4-carboxamide hydrochloride]: the IC50 on human factor XIa amounted to 1 nM. In the assay on human and animal plasma, the “aPTT” value is 0.007 µmol/L.

On to `NC[C@H]1CC[C@H](C(=O)N[C@@H](Cc2ccc(-c3ccc(C(=O)NC4CCNCC4)c(Cl)c3)cc2)C(=O)Nc2ccc(-c3nn[nH]n3)cc2)CC1` [Example 122, 4′-[(2S)-2-({[trans-4-(Aminomethyl)cyclohexyl]carbonyl}amino)-3-oxo-3-{[4-(2H-tetrazol-5-yl)phenyl]amino}propyl]-3-chloro-N-(piperidin-4-yl)biphenyl-4-carboxamide hydrochloride], for which inhibition against human factor XIa was half-maximal at 5.2 nM (IC50). In addition, the “aPTT” value in the assay on human and animal plasma amounted to 0.16 µmol/L.

`Cc1c(C(=O)NC2CCNCC2)ccc(-c2ccc(C[C@H](NC(=O)[C@H]3CC[C@H](CN)CC3)C(=O)Nc3ccc(-c4nn[nH]n4)cc3)cc2)c1C` [Example 123, 4′-[(2S)-2-({[trans-4-(Aminomethyl)cyclohexyl]carbonyl}amino)-3-oxo-3-{[4-(2H-tetrazol-5-yl)phenyl]amino}propyl]-2,3-dimethyl-N-(piperidin-4-yl)biphenyl-4-carboxamide hydrochloride] showed an IC50 on human factor XIa of 2.5 nM. The “aPTT” value in the assay with human and animal plasma was 0.02 µmol/L.

The molecule `Cc1c(C(=O)NC2CCNCC2)ccc(-c2ccc(C[C@H](NC(=O)[C@H]3CC[C@H](CN)CC3)C(=O)Nc3ccc(-c4nn[nH]n4)cc3)cc2)c1Cl` [Example 124, 4′-[(2S)-2-({[trans-4-(Aminomethyl)cyclohexyl]carbonyl}amino)-3-oxo-3-{[4-(2H-tetrazol-5-yl)phenyl]amino}propyl]-2-chloro-3-methyl-N-(piperidin-4-yl)biphenyl-4-carboxamide hydrochloride] showed an IC50 against human factor XIa of 1.8 nM. Also, the “aPTT” value in the assay with human and animal plasma stood at 0.1 µmol/L.

On human factor XIa, `Cc1c(C(=O)NC2CCN(C)CC2)ccc(-c2ccc(C[C@H](NC(=O)[C@H]3CC[C@H](CN)CC3)C(=O)Nc3ccc(-c4nn[nH]n4)cc3)cc2)c1Cl` [Example 125, 4′-[(2S)-2-({[trans-4-(Aminomethyl)cyclohexyl]carbonyl}amino)-3-oxo-3-{[4-(2H-tetrazol-5-yl)phenyl]amino}propyl]-2-chloro-3-methyl-N-(1-methylpiperidin-4-yl)biphenyl-4-carboxamide hydrochloride] yielded an IC50 of 3 nM. In addition, in the assay with human and animal plasma, the “aPTT” value amounted to 0.09 µmol/L.

Turning to `Cc1cc(C(=O)NC2CCNCC2)ccc1-c1ccc(C[C@H](NC(=O)[C@H]2CC[C@H](CN)CC2)C(=O)Nc2ccc(-c3nc(C(F)(F)C(F)(F)C(=O)N(C)C)n[nH]3)cc2)cc1` [Example 126, 4′-{(2S)-2-({[trans-4-(Aminomethyl)cyclohexyl]carbonyl}amino)-3-[(4-{3-[3-(dimethylamino)-1,1,2,2-tetrafluoro-3-oxopropyl]-1H-1,2,4-triazol-5-yl}phenyl)amino]-3-oxopropyl}-2-methyl-N-(piperidin-4-yl)biphenyl-4-carboxamide hydrochloride], inhibition at human factor XIa was half-maximal at 1.6 nM (IC50). Further, the “aPTT” value in the assay with human and animal plasma came out at 0.14 µmol/L.

For the molecule `Cc1cc(C(=O)NC2CCNCC2)ccc1-c1ccc(C[C@H](NC(=O)[C@H]2CC[C@H](CN)CC2)C(=O)Nc2ccc(-c3nc(C(F)(F)C(F)(F)C(N)=O)n[nH]3)cc2)cc1` [Example 127, 4′-[(2S)-2-({[trans-4-(Aminomethyl)cyclohexyl]carbonyl}amino)-3-({4-[3-(3-amino-1,1,2,2-tetrafluoro-3-oxopropyl)-1H-1,2,4-triazol-5-yl]phenyl}amino)-3-oxopropyl]-2-methyl-N-(piperidin-4-yl)biphenyl-4-carboxamide hydrochloride], half-maximal inhibition on human factor XIa (IC50) was put at 1.5 nM. The “aPTT” value in the assay with human and animal plasma was determined as 0.14 µmol/L.

Turning to `CNC(=O)C(F)(F)C(F)(F)c1n[nH]c(-c2ccc(NC(=O)[C@H](Cc3ccc(-c4ccc(C(=O)NC5CCNCC5)cc4C)cc3)NC(=O)[C@H]3CC[C@H](CN)CC3)cc2)n1` [Example 128, 4′-{(2S)-2-({[trans-4-(Aminomethyl)cyclohexyl]carbonyl}amino)-3-oxo-3-[(4-{3-[1,1,2,2-tetrafluoro-3-(methylamino)-3-oxopropyl]-1H-1,2,4-triazol-5-yl}phenyl)amino]propyl}-2-methyl-N-(piperidin-4-yl)biphenyl-4-carboxamide hydrochloride], at human factor XIa, the IC50 is 1.7 nM. The “aPTT” value with human and animal plasma is 0.14 µmol/L.

`COC(=O)C(F)(F)C(F)(F)c1n[nH]c(-c2ccc(NC(=O)[C@H](Cc3ccc(-c4ccc(C(=O)NC5CCNCC5)cc4C)cc3)NC(=O)[C@H]3CC[C@H](CN)CC3)cc2)n1` [Example 129, Methyl 3-{5-[4-({(2S)-2-({[trans-4-(aminomethyl)cyclohexyl]carbonyl}amino)-3-[2′-methyl-4′-(piperidin-4-ylcarbamoyl)biphenyl-4-yl]propanoyl}amino)phenyl]-1H-1,2,4-triazol-3-yl}-2,2,3,3-tetrafluoropropanoate hydrochloride]: inhibition at human factor XIa was half-maximal at 1.8 nM (IC50). The “aPTT” value in the assay on human and animal plasma turned out to be 0.09 µmol/L.

On human factor XIa, `CN(C)C1CCC(NC(=O)c2ccc(-c3ccc(C[C@H](NC(=O)[C@H]4CC[C@H](CN)CC4)C(=O)Nc4ccc(-c5nc(C(F)(F)C(F)(F)C(=O)O)n[nH]5)cc4)cc3)c(C(F)(F)F)c2)CC1` (stereo partly drawn) [Example 132, 3-{5-[4-({(2S)-2-({[trans-4-(Aminomethyl)cyclohexyl]carbonyl}amino)-3-[4′-{[4-(dimethyl-amino)cyclohexyl]carbamoyl}-2′-(trifluoromethyl)biphenyl-4-yl]propanoyl}amino)phenyl]-1H-1,2,4-triazol-3-yl}-2,2,3,3-tetrafluoropropanoic acid hydrochloride] yielded an IC50 of 1.6 nM. In addition, in the assay on human and animal plasma, the “aPTT” value turned out to be 0.05 µmol/L.
